Measured values published in patent US20140234868A1, “USE FOR GLYCOLIPOPROTEIN GINTONIN, ISOLATED AND IDENTIFIED FROM GINSENG, AS A NATURAL MEDICAL-PLANT DERIVED LIGAND” (KONKUK UNIVERSITY INDUSTRIAL COOPERATION CORP., priority 2011, published 2014).

What was measured:
LPA3 receptor = molecular target: T1, LPA3 receptor (Homo sapiens, UniProt Q9UBY5); assay: Intracellular free Ca2+ (Fura-2AM) in LPA3-expressing B103 cells; type: cell-based; conditions: LPA3-expressing B103 cells; for increase of intracellular calcium level: ginsenosides each 10 μM
T1 construct: host or cells: B103 rat neuroblastoma cells
T1 sequence (Q9UBY5 1-353): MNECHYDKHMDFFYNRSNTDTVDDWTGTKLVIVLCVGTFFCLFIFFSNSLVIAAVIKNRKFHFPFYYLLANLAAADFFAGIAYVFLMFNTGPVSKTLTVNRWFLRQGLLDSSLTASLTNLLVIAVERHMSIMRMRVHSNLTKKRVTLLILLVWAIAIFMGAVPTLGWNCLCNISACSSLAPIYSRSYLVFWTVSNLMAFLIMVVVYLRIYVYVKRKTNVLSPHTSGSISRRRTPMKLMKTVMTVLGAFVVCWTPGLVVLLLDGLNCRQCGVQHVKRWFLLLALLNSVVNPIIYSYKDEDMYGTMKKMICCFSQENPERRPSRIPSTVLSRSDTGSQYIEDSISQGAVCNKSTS
Description: (§1) LPA family receptors are endogenous to cells of most organs. B103 rat neuroblastoma cells, known as LPA receptor-null cells (Valentine et al., Biochim Biophys Acta 1780. 597-605) were transiently transfected with a plasmid (vector) carrying one of genes coding for LPA1(edg-2), LPA2(edg-4), LPA3(edg-7), LPA4, LPA5 and LPA6 receptors or a plasmid carrying none of them (empty vector). Two or three days after transfection, the cells are suspended, and made permeable. Then, the permeable cells are treated with Fura-2AM, a fluorescent dye binding to calcium, and then with gintonin, followed by spectrofluorephotometry to examine whether gintonin induces an increase in intracellular free Ca^2+ level.
(§2) (1) preparing large quantities of plasmids carrying respective LPA family receptor genes and an empty plasmid carrying none of them through amplification and purification (maxi-preparation); (2) verifying the expression of LPA receptors wherein B103 cells are transfected with haematoglutin (HA)-tagged LPA receptors, and then subjected to Western blotting analysis using an anti-HA primary antibody and a horseradish peroxidase (HRP)-conjugated secondary antibody to develop a color; (3) verifying the expression of LPA receptors wherein B1-3 cells are transfected with haematoglutin (HA)-tagged LPA receptors, and then subjected to confocal laser microscopy using an anti-HA antibody and a fluorescence dye Cy3-conjugated secondary antibody; (4) transfecting the empty plasmid and each of the plasmids carrying LPA family receptor genes into B103 cells; (5) treating the transfected B103 cells with trypsin (0.05% trypsin with EDTA, w/v) 2-3 days post-transfection, to give a cell suspension; (6) culturing the suspended B103 cells with Fura-2AM (2.5 μM); and (7) treating the suspended B103 cells with gintonin and quantifying a change in intracellular free Ca^2+ level in a cuvette by spectrofluorephotometry using Fura-2AM.
(§3) Human LPA (lysophosphatidic acid) receptor subtypes, orphan GPCRs (G protein coupled receptors) and plasmids carrying GPCRs were purchased from Missouri S&T resource Center (www.cDNA.org).
(§4) The transient transfection of LPA receptor subtypes was carried out with the aid of Lipofectamine 2000 of Invitrogen. A plasmid (10.8 μg) carrying each LPA receptor (LPA1, LPA2, LPA3, LPA4, LPA5, and LPA6) was transfected into B103 cells grown in 10-cm dishes, and incubated for 2 days prior for use in experiments.
In this Example, gintonin, or ginsenoside Rb1 or Rg1 was examined for its ability to induce a transient increase of [Ca^2+]i in Fura-2AM-loaded B103 cells which were transfected with LPA receptors and in Fura-2AM-loaded B103 cells which were not transfected with LPA receptors. To this end, B103 cells (2˜4×10^6/ml) pre-treated with Fura-2AM were suspended in a 1.5 mM Ca^2+-containing buffer or Ca^2+-free buffer, and incubated 37° C. for 30 min, followed by analyzing intracellular calcium levels in the B103 cells in the presence of gintonin or ginsenosides.
Briefly, B103 cells (1˜2×10^6/ml) were mixed with 2.5 μM Fura 2-AM in a Ca^2+ buffer (pH 7.4) containing NaCl 120 mM, KCl 5 mM, MgCl2 1 mM, CaCl2 1.5 mM, glucose 10 mM, and HEPES 25 mM, and a Ca^2+ free buffer (pH 7.4) containing NaCl 120 mM, KCl 5 mM, MgCl2 1 mM, EGTA 0.2 mM, glucose 10 mM, and HEPES 25 mM at 37° C. for 30 min in water bath with shaking according to the Jørgensen method, and washed three times with Ca^2+ buffer or Ca^2+ free buffer to remove excess Fura-2AM.
[Ca^2+]i was estimated in Fura 2AM-loaded cells in suspension using an RF-5300PC intracellular ion measurement system (Shimadzu Corporation, Japan).
Briefly, Fura 2-AM loaded cells were diluted with an experimental medium to a final density of 2˜4×10^6 cells/mL, and transferred to polystyrene cuvettes (Elkay Ultra-VU). The cells were stirred using Teflon-coated magnets, and the cuvette housing was thermostatically controlled at 37° C. The excitation wavelengths were alternated between 340 and 380 nm under computer control. […]

[1] = system: NMDA receptors (NR1 and NR2); assay: NMDA receptor activity in Xenopus oocytes, two-electrode voltage clamp; type: cell-based; conditions: Kil6425 10 μM, 2-APB 100 μM, BAPTA 100 μM 3 h; for effect on gintonin-induced NMDA receptor activation: gintonin 1 μg/ml, U73122, U73343 1 μM, genistein 10 μM, PP2, PP3 30 μM
Description: cDNAs of NMDA receptor subunits (NR1 and NR2) were employed (Zheng et al., J Neurosci. 17, 8676-8686, 1997). cDNAs (100 ng/40 nl) corresponding to respective NMDA receptor subunits (NR1 and NR2) were injected into animal or vegetal poles of oocytes by use of a […] (VWR Scientific, USA) and incubated for 4-5 days after injection (Zheng et al., J Neurosci. 17, 8676-8686, 1997).
(§5) Xenopus laevis frogs were obtained from Xenopus I (Ann Arbor, Mich.). Their care and handling were in accordance with the highest standards of institutional guidelines. To isolate oocytes, the frogs were operated on under anesthesia with an aerated solution of 3-aminobenzoic acid ethyl ester. Oocytes were separated by treatment with collagenase and agitation for two hours in a Ca^2+-free medium containing 82.5 mM NaCl, 2 mM KCl, 1 mM MgCl2, 5 mM HEPES, 2.5 mM sodium pyruvate, 100 units/ml penicillin and 100 μg/ml streptomycin.
(§6) Stage V-VI oocytes were collected and stored in ND96 (96 mM NaCl, 2 mM KCl, 1 mM MgCl2, 1.8 mM CaCl2, and 5 mM HEPES, pH 7.4) supplemented with 50 μg/ml gentamicin. This oocyte containing solution was maintained at 18° C. with continuous gentle shaking while the ND96 medium was changed to a fresh one every day.
Two-electrode voltage-clamp recordings were obtained from individual oocytes placed in a small Plexiglas net chamber (5 ml). Electrophysiological experiments were performed using microelectrodes filled with 3 M KCl (resistance of 0.2-0.7 MΩ) and an Oocyte Clamp amplifier (OC-725C; Warner Instrument, Hamden, Conn.). For physiological recordings of NMDA receptor activity, oocytes were first perfused with Mg^2+-free ND96 (mM: 96 NaOH, 2 KOH, 0.3 CaCl2, 5 HEPES pH 7.6 with methanesulfonic acid). Then, the oocytes were clamped at −60 mV holding potential, followed by recoding NMDA currents (induced by administering […]) (Zheng et al., J Neurosci. 17, 8676-8686, 1997; Chang and Kuo, J Neurosci. 28, 1546-1556, 2008).

endogenous CaCC = assay: Endogenous Ca2+-activated channel (CaCC) activation in Xenopus oocytes; type: cell-based, Xenopus laevis; conditions: Kil6425 10 μM; U73122 1 μM; 2-APB 100 μM; BAPTA 100 μM 3 h
BKCaK+ channels = assay: BKCa K+ channel activity in Xenopus oocytes, two-electrode voltage clamp; type: cell-based; conditions: Kil6425 10 μM; U73122, U73343 1 μM; 2-APB 100 μM; BAPTA-AM; PMA 1 μM
Description: as §5
as §6, with “changed with” for “changed to”
Two-electrode voltage-clamp recordings were obtained from individual oocytes placed in a small Plexiglas net chamber (5 ml). Electrophysiological experiments were performed using microelectrodes filled with 3 M KCl (resistance of 0.2-0.7 MΩ) and an Oocyte Clamp amplifier (OC-725C; Warner Instrument, CT, USA) to record BKc K^+ channel activity at room temperature (Choi et al., Mol Cells 31, 133-140, 2011). For physiological recordings of BKCaK^+ channel activity, oocytes were first perfused with a Cl^−- and Ca^2+-free solution (mM: 96 NaOH, 2 KOH, 8 Mg-gluconate, 5 HEPES, 5 EGTA, pH 7.4 with methanesulfonic acid) supplemented with 500 μM anthracene-9-carboxylic acid, a Cl^− channel blocker, to block endogenous Cl-channels (Lu et al., J. Biol. Chem. 265, 16190-16194.1990). Then, the oocytes were clamped at −80 mV holding potential, followed by step depolarization from the holding potential to +40 mV at regular intervals of […] for 400 ms to record outward currents.

LPA2 receptor = LPA2 receptor (Homo sapiens, UniProt Q9HBW0); assay: Intracellular free Ca2+ (Fura-2AM) in LPA2-expressing B103 cells; type: cell-based; parameters: host or cells: B103 rat neuroblastoma cells; conditions: LPA2-expressing B103 cells
Description: as §1, §2, §3, §4
In this Example, gintonin, or ginsenoside Rb1 or Rg1 was examined for its ability to induce a transient increase of [Ca^2+]i in Fura-2AM-loaded B103 cells which were transfected with LPA receptors and in Fura-2AM-loaded B103 cells which were not transfected with LPA receptors. […]

mice = assay: Busulfan-caused diarrhea and mucositis in mice; type: in vivo, mouse; conditions: busulfan 40 mg/kg i.p.; for Diarrhea (cases / mice) / Mucositis (cases / mice): gintonin 100 mg/kg oral 3 days before, observed 10 days
Description: In this Example, an examination was made of the inhibitory activity of gintonin against chemotherapy-induced diarrhea and mucositis. For this, gintonin-treated mice were administered with busulfan, and observed for diarrhea and mucostitis.
Briefly, mice were orally administered at a dose of 100 mg/kg with gintonin 3 days before intraperitoneal injection with busulfan (40 mg/kg). For the control, physiological saline was used, instead of gintonin.

LPA2 receptor, sequence (Q9HBW0 whole entry): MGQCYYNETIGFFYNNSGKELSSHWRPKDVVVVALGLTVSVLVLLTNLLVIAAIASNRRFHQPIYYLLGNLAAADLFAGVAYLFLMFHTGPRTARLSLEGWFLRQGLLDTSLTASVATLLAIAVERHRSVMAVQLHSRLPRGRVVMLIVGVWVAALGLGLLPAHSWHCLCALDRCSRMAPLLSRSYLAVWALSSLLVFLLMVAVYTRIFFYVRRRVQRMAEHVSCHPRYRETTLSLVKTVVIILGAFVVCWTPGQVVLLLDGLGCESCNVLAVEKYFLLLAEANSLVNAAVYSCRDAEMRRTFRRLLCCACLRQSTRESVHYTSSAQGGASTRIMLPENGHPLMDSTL

CC(C)=CCC[C@](C)(O[C@@H]1O[C@H](CO[C@@H]2O[C@H](CO)[C@@H](O)[C@H](O)[C@H]2O)[C@@H](O)[C@H](O)[C@H]1O)[C@H]1CC[C@]2(C)[C@@H]1[C@H](O)C[C@@H]1[C@@]3(C)CC[C@H](O[C@@H]4O[C@H](CO)[C@@H](O)[C@H](O)[C@H]4O[C@@H]4O[C@H](CO)[C@@H](O)[C@H](O)[C@H]4O)C(C)(C)[C@@H]3CC[C@]12C [Rb1, ginsenoside Rb1]
increase of intracellular calcium level (LPA3 receptor): no increased intracellular calcium levels were detected

Nc1ncnc2c1cnn2-c1ccccc1 [PP3]
effect on gintonin-induced NMDA receptor activation [1]: did not show inhibitory activity

pertussis toxin [PTX]
lowering of gintonin-induced increase of intracellular calcium level (LPA3 receptor; PTX 200 μg/ml, 16 hrs pretreatment, vs cells not treated with PTX): 25%

COc1ccc2c(c1)CC[C@@H]1[C@@H]2CC[C@]2(C)[C@@H](NCCCCCCN3C(=O)C=CC3=O)CC[C@@H]12 [U73122]
effect on gintonin-induced CaCC activation (endogenous CaCC): suppressed gintonin-induced CaCC activation | effect on NMDA-induced inward current ([1]; U73122 1 μM): did not block NMDA-induced inward current | effect on gintonin-induced NMDA receptor activation [1]: blocked gintonin-induced NMDA receptor activation | effect on gintonin-induced BKCaK+ channel activation (BKCaK+ channels): blocked gintonin-induced BKCaK^+ channel activation | effect on gintonin-induced intracellular calcium increase (LPA2 receptor): blocked

COc1ccc2c(c1)CC[C@@H]1[C@@H]2CC[C@]2(C)[C@@H](NCCCCCCN3C(=O)CCC3=O)CC[C@@H]12 [U73343]
effect on gintonin-induced NMDA receptor activation [1]: did not block gintonin-induced NMDA receptor activation | effect on gintonin-induced BKCaK+ channel activation (BKCaK+ channels): did not block gintonin-induced BKCaK^+ channel activation

CC(C)=CCC[C@](C)(O)[C@H]1CC[C@]2(C)[C@@H]1[C@H](O)C[C@@H]1[C@@]3(C)CC[C@H](O[C@@H]4O[C@H](CO)[C@@H](O)[C@H](O)[C@H]4O[C@@H]4O[C@H](CO)[C@@H](O)[C@H](O)[C@H]4O)C(C)(C)[C@@H]3CC[C@]12C [Rg3, ginsenoside Rg3]
increase of intracellular calcium level (LPA3 receptor): no increased intracellular calcium levels were detected

CC(C)=CCC[C@](C)(O[C@@H]1O[C@H](CO)[C@@H](O)[C@H](O)[C@H]1O)[C@H]1CC[C@]2(C)[C@@H]1[C@H](O)C[C@@H]1[C@@]3(C)CC[C@H](O)C(C)(C)[C@@H]3[C@@H](O[C@@H]3O[C@H](CO)[C@@H](O)[C@H](O)[C@H]3O)C[C@]12C [Rg1, ginsenoside Rg1]
increase of intracellular calcium level (LPA3 receptor): no increased intracellular calcium levels were detected

CS(=O)(=O)OCCCCOS(C)(=O)=O [Busulfan, busulfan, reference compound]
diarrhea morbidity rate (mice; gintonin 100 mg/kg oral): 53.3% | perianal mucositis morbidity (mice; gintonin 100 mg/kg oral): 46.7% | Diarrhea (cases / mice) (mice): 8/15 | Mucositis (cases / mice) (mice): 7/15 | Mucositis (cases / mice) (mice; listed as bufulfan): 7 | Diarrhea (cases / mice) (mice; listed as busulfan): 8

O=c1c(-c2ccc(O)cc2)coc2cc(O)cc(O)c12 [Genistein]
effect on gintonin-induced NMDA receptor activation [1]: inhibit gintonin-induced NMDA receptor activation

CC(C)(C)n1nc(-c2ccc(Cl)cc2)c2c(N)ncnc21 [PP2]
effect on gintonin-induced NMDA receptor activation [1]: blocked the action of gintonin
